{"source": "ChEMBL document CHEMBL1275424", "about": "“In vitro activity of anidulafungin against Candida albicans biofilms” (2008)", "assay_type_in_all_cases": "functional", "key": {"[1]": {"system": "Candida albicans", "test": "Antimicrobial activity against Candida albicans GDH2346 grown as sessile cell after 48 hrs by broth microdilution method", "conditions": "GDH2346, 48 h"}, "[2]": {"system": "Candida albicans", "test": "Antimicrobial activity against Candida albicans grown as planktonic cell after 48 hrs by broth microdilution method"}, "[3]": {"system": "Candida albicans", "test": "Antimicrobial activity against Candida albicans grown as sessile cell after 48 hrs by broth microdilution method"}, "[4]": {"system": "Candida albicans", "test": "Antimicrobial activity against Candida albicans grown as planktonic cell after 24 hrs by broth microdilution method"}, "[5]": {"system": "Candida albicans", "test": "Antimicrobial activity against Candida albicans grown as planktonic cell by broth microdilution method"}}, "note": "Numbered stars: 1 amine (or outer) side, 2 acyl side, 3 side chain; on linkers, the order of the positions; unused ones are H or OH. Bridge positions count the residues as written; N and C are the ends. Square brackets hold non-standard residues; d marks the D form. Peptide text beside a SMILES is read from it. * marks the point of attachment. pTerphenylCO(4''-OnC5H11) = CCCCCOc1ccc(-c2ccc(-c3ccc(C(=O)*)cc3)cc2)cc1; Orn(4R-OH,5R-OH) = O=C([C@H](C[C@@H](O)[C@@H](O)N[*:3])N[*:1])[*:2]; hTyr(3S-OH,4S-OH) = N[C@H](C(=O)O)[C@H](O)[C@@H](O)c1ccc(O)cc1; Pro(3S-OH,4S-Me) = C[C@H]1CN[C@H](C(=O)O)[C@H]1O; Hyp = O=C(O)[C@@H]1C[C@@H](O)CN1", "data": [{"compound": "CCCCCOc1ccc(-c2ccc(-c3ccc(C(=O)N[C@H]4C[C@@H](O)[C@@H](O)NC(=O)[C@@H]5[C@@H](O)[C@@H](C)CN5C(=O)[C@H]([C@@H](C)O)NC(=O)[C@H]([C@H](O)[C@@H](O)c5ccc(O)cc5)NC(=O)[C@@H]5C[C@@H](O)CN5C(=O)[C@H]([C@@H](C)O)NC4=O)cc3)cc2)cc1", "note": "[ANIDULAFUNGIN] ({pTerphenylCO(4''-OnC5H11)}-[Orn(4R-OH,5R-OH)]T[Hyp][hTyr(3S-OH,4S-OH)]T[Pro(3S-OH,4S-Me)]; lactam 1-C)", "values": [{"measurement": "MIC", "setting": "[1]", "value": "≤ 0.03", "unit": "µg/mL"}, {"measurement": "MIC", "setting": "[2]", "value": "≤ 0.5", "unit": "µg/mL"}, {"measurement": "MIC", "setting": "[3]", "value": "> 0.03", "unit": "µg/mL"}, {"measurement": "MIC", "setting": "[4]", "value": 0.125, "unit": "µg/mL"}, {"measurement": "MIC", "setting": "[5]", "value": "≤ 0.03", "unit": "µg/mL"}, {"measurement": "MIC50", "setting": "[5]", "value": "≤ 0.03", "unit": "µg/mL"}, {"measurement": "MIC90", "setting": "[5]", "value": 0.125, "unit": "µg/mL"}]}, {"compound": "C[C@@H](c1ncncc1F)[C@](O)(Cn1cncn1)c1ccc(F)cc1F", "note": "[VORICONAZOLE]", "values": [{"measurement": "MIC90", "setting": "[5]", "value": "> 0.06", "unit": "µg/mL"}]}, {"compound": "C[C@@H]1[C@H](O)[C@@H](C)/C=C/C=C/C=C/C=C/C=C/C=C/C=C/[C@H](O[C@@H]2O[C@H](C)[C@@H](O)[C@H](N)[C@@H]2O)C[C@@H]2O[C@](O)(C[C@@H](O)C[C@@H](O)[C@H](O)CC[C@@H](O)C[C@@H](O)CC(=O)O[C@H]1C)C[C@H](O)[C@H]2C(=O)O", "note": "[AMPHOTERICIN B]", "values": [{"measurement": "MIC90", "setting": "[5]", "value": 0.25, "unit": "µg/mL"}]}, {"compound": "CC[C@H](C)C[C@H](C)CCCCCCCCC(=O)N[C@H]1C[C@@H](O)[C@@H](NCCN)NC(=O)[C@@H]2[C@@H](O)CCN2C(=O)[C@H]([C@H](O)CCN)NC(=O)[C@H]([C@H](O)[C@@H](O)c2ccc(O)cc2)NC(=O)[C@@H]2C[C@@H](O)CN2C(=O)[C@H]([C@@H](C)O)NC1=O", "note": "[CASPOFUNGIN]", "values": [{"measurement": "MIC90", "setting": "[5]", "value": 0.5, "unit": "µg/mL"}]}]}
